One data set has as its system HRV 14. Put plainly: Antiviral assay, XTT method, HRV 14. Type of data set: cell-based. The following applies: HRV 14. (Tetrazolium assays rely on reduction of a dye to a coloured formazan, in cell work by metabolically active cells.)
The target in a further data set is T1, Apopain (caspase-3) (Homo sapiens, UniProt P42574).
T1 construct: purchased Bio-rad FluorAce Apopain Assay Kit (booklet 4100119)
T1 sequence (P42574 29-175 limits assumed): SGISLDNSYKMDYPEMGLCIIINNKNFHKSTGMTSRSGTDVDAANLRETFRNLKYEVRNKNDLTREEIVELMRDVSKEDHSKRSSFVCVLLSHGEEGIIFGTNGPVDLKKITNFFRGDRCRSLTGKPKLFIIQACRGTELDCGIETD
T1 sequence (P42574 176-277 limits assumed): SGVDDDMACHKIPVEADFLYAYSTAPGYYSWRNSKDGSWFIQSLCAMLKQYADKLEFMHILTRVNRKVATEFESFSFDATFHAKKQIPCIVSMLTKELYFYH
Put plainly: Apopain (Caspase-3) Regulation Assay (FluorAce Apopain Assay Kit). Type of data set: biochemical. Particulars: Apopain modulation: Inhibitor or Activator. Here is the method: VI: Apopain (Caspase-3) Regulation Assay
The FluorAce™ Apopain Assay Kit (Bio-rad) was employed in multiwell format. Compounds assayed were diluted 5-fold in distilled water (from stock solutions in ethanol or DMSO) and centrifuged (5′, 14K rpm). 10 μL of the supernatant was further diluted in wells containing 100 μL distilled water and 40 μL 6×Buffer (41.7 mM PIPES, pH 7.4, 8.3 mM EDTA, 0.42% CHAPS, 20.8 mM DTT). This process was carried out twice to yield duplicate wells for each compound. Control wells were prepared by addition of EtOH and DMSO (5-fold diluted in distilled water) into wells containing 6×Buffer and distilled water (40 μL and 100 μL, respectively), to form 8 wells with each solvent. Enzyme (stock solution 10-fold diluted in distilled water, see Bio-rad booklet 4100119) was added to one set of compound-containing cells and to 8 control wells (4 with ethanol and 4 with DMSO). The plate was preincubated for ˜80′ at 27°-28° C. Substrate (Z-DEVD-AFC, 490 μM, 40 μL) was then added to all wells. The plate was left at room temperature and fluorescence (360/40↑530/20↓) was measured at several time points (FL500 fluorimetric reader, Bio-tek instruments). Fluorescence at enzyme-containing wells was background-subtracted at each time point and initial rates were determined by linear regression (typically R^2>0.97). Percentage inhibition and activation was determined by relating the slope with compound to the control slope (with appropriate solvent). IC50 values are extrapolated.

Data set [1] is described as follows: Cytotoxicity by XTT assay (treated, mock-infected cells). The following applies: human, H1-HeLa cells (ATCC), mock-infected.
The test system of a further data set is HRV 16. As to the kind of experiment: Antiviral assay, XTT method, HRV 16. The data set is classed as cell-based. Particulars: HRV 16; Format 2.
The test system of the next data set is HRV 1A. As to the kind of experiment: Antiviral assay, XTT method, HRV 1A. The data set is classed as cell-based. Particulars: Format 2.
For a further data set, the system named is HRV 1B. As to the kind of experiment: Antiviral assay, XTT method, HRV 1B. The data set is classed as cell-based. Particulars: HRV 1B; Format 2.
In the next data set the test system is 3C protease. The following applies: background, in words; cited from earlier work.
Data set [2] relates to elastase present in erythrocytes. Particulars: background, in words; cited from earlier work.
Setting [3] is: Format 1, restores 50% of viral-caused decrease in cell viability.

Usually IC50 stands for the concentration that gives 50% inhibition. A high value points to a need for much substance. As usually defined, the CC50 is the concentration giving 50% cytotoxicity. High values mean lower toxicity to the cells, low ones greater toxicity to the cells. The melting point is the temperature of the solid-liquid transition.

As to `COc1ccc(O)c(C(C)=O)c1` [compound 37], the 50% inhibitory concentration (IC50) in the data set on HRV 14 (setting [3]) was found to be 146 µM; in the data set with HRV 14 (Format 2) it was 220 ± 23 µM; in the data set with HRV 16, 149 ± 148 µM; in the data set on HRV 1A, 830 ± 330 µM; with HRV 1B it was 610 ± 160 µM. Moreover, the Activity result on Apopain (caspase-3) is “Inhibitor”. Besides, the CC50 in data set [1] is > 1250 µM.

In the case of `CCCCCCCCNC(=O)c1cc([N+](=O)[O-])cc([N+](=O)[O-])c1O` [SA#128], the IC50 with HRV 14 (setting [3]) is 152 µM; in the data set with HRV 14 (Format 2), 31 ± 6 µM; with HRV 16, 4 ± 3 µM. The same compound gave a 50% cytotoxic concentration (CC50) in the data set with Hl-Hela cells of 429 ± 42 µM.

For the compound `O=C(NCc1ccccc1)c1cc([N+](=O)[O-])cc([N+](=O)[O-])c1O` [SA#120], the IC50 came out at 30 µM in the data set with HRV 14 (setting [3]), 40 ± 33 µM in the data set with HRV 14 (Format 2) and 30 ± 8 µM in the data set with HRV 16. In the data set with Hl-Hela cells, this compound gave a CC50 of 271 ± 22 µM.

As to `C/C=C/c1cc2c(c(=O)o1)C(=O)[C@@H](O)[C@H](C)O2` [radicinin], in the data set with 3C protease, the “inhibition of the 3C protease” value is “lower level of inhibition than thysanone”.

On to `C[C@H]1CC2=C(C(=O)c3c(O)cc(O)cc3C2=O)[C@H](O)O1` [Thysanone], for which the “inhibition of the 3C protease” value in the data set with 3C protease is “inhibitor of the 3C protease”. The inhibition of elastase result in data set [2] is given as “efficient inhibitor”.

For the compound `O=C(NCCc1ccccc1)c1cc([N+](=O)[O-])cc([N+](=O)[O-])c1O` [SA#127], the IC50 in the data set on HRV 14 (setting [3]) was found to be 23 µM; in the data set with HRV 14 (Format 2), 16 ± 4 µM; with HRV 16, 15 ± 4 µM; with HRV 1A, 13 ± 3 µM; with HRV 1B it was 11 ± 1 µM. In addition, the CC50 with Hl-Hela cells was 187 ± 18 µM.

With `CC(=O)c1c(O)cccc1OCC(N)=O` (hydrate or solvate) [SA#121, 2-(2-acetyl-3-hydroxyphenoxy)-acetamide], the melting point is 151 to 152 °C.
